Patent publication US8071548B2, “Method of reducing injury to mammalian cells” (Nono, Inc., priority 2002, dated 2011)

Experiments:
[1] = system: cortical neuronal cultures; assay: Sublethal stretch injury with or without NMDA, cell death in cortical cultures; type: cell-based
Protocol: […]. In brief, cerebral cortices from 10 to 12 embryos were incubated for 10 min in 0.05% trypsin-EDTA, dissociated by trituration, and plated on flexible membranes coated with poly-L-ornithine in 6 well plates (Flexcell International Corporation, Hillsborough, N.C.) at a density of 3.25×10^6 cells per well. Plating medium consisted of DMEM supplemented with 10% heat-inactivated horse serum (Gibco) and (in mM) 2 glutamine, 25 glucose, and 26 bicarbonate. The cultures were maintained at 37° C. in a humidified 5% CO2 atmosphere. After 3 days in vitro, growth of non-neuronal cells was halted by a 48 h exposure to 10 μM FDU-solution (5 μM uridine, 5 μM (+)-5-fluor-2′-deoxyuridine). This produces cultures in which >85% of the cells are neurons, based on immunohistochemical staining for glial fibrillary associated protein (exclusive to astrocytes), and for the NMDAR1 subunit (not shown). The cultures were used for experiments after 12-14 days in vitro.
The cultures, grown on silastic membranes as above, were placed in the Flexercell® FX-3000™ Strain Unit (Flexcell Int., Inc.), a computer-driven instrument that uses a vacuum pulse to deform the culture substrate. In all experiments, the cortical cultures were stretched to 130% of their original length for 1 s, inducing a sublethal injury as recently characterized by us (Arundine et al., 2003). The stretched neurons maintained cell membrane integrity, viability, and electrophysiological function.
Cell death was determined by serial quantitative measurements of propidium iodide (PI) fluorescence using a multiwell plate fluorescence scanner (Cytofluor II, PerSeptive Biosytems, Framingham, Mass., USA) as described previously (Sattler et al., 1997; Sattler et al., 1998). In brief, the culture medium in each tissue culture well was replaced with control solution containing 50 μg/ml PI, and a baseline fluorescence reading was taken. Sequential readings were then taken at appropriate intervals over the 20 h observation period. The fraction of dead cells in each culture at a given time was calculated as: Fraction dead=(Ft−Fo)/FNMDA Where Ft=PI fluorescence at time t, F0=initial PI fluorescence at time zero and FNMDA=background subtracted PI fluorescence of identical cultures from the same dissection and plating, 20-24 h after a 60 min exposure to 1 mM NMDA at 37° C. Based on manual observations at the time of validation of this technique, this NMDA exposure routinely produced near complete neuronal death in each culture but had no effect on surrounding glia (also see (Bruno et al., 1994; David et al., 1996; Sattler et al., 1997)). Adding Triton X-100 (0.1%) to cultures treated in this manner produced an additional 10-15% increase in PI fluorescence due to permeabilization of non-neuronal cell membranes, consistent with a 10-15% glial component in the cultures.
All experiments were performed at 37° C. Unless otherwise indicated, all solutions contained nimodipine (2 μM) and CNQX (10 μM) to restrict the actions of applied NMDA to NMDARs by preventing the secondary activation of other pathways (Sattler et al., 1998). In general, the cultures were washed ×2 with control solution and immediately stretched to 130% of their original length for 1 s. After the stretch, they were washed ×1 with control solution alone or challenged with an additional treatment (e.g., NMDA) and placed at 37° C. for 1 h. They were then washed ×1 with control solution and then with control solution containing 50 μg/ml PI to obtain a baseline reading. In pilot studies, baseline readings obtained at this stage were similar to those obtained by staining the cells with PI prior to stretch. As the stretch causes splashing of the bath solution, staining with PI after stretch reduced biohazard potential and artifacts associated with PI outside the culture well. Unstretched controls were manipulated identically to stretched cultures.

[2] = system: traumatic brain injury; assay: Lateral fluid percussion injury model of TBI; type: in vivo, Sprague-Dawley rats; details: analyzed 24 h after injury
Protocol: Adult male Sprague-Dawley rats weighing approximately 350 g were ordered from Charles River and anesthesia was induced using a gaseous mixture of 1:2 oxygen:nitrous oxide with 2% halothane. The halothane level was reduced to 1% during surgical manipulations and weights were recorded prior to preparatory surgery. The preparatory surgery for these experiments included the cannulation of the left femoral vein and a 5 mm diameter craniotomy. The venous cannula is sealed and tucked inside the animal whereupon the wound is sutured. The center of the craniotomy lies about 2.5 mm to the right of the sagittal suture, between the bregma and lambda. A modified Leur-loc is attached to the perimeter of the craniotomy with superglue (FIG. 28).
Dental acrylic (GC America Inc, Alsip, Ill.) is applied around the modified Leur-loc to seal it into place. A small piece of gelfoam is placed into the opening and the skin is sutured over the entire setup. The animal is then returned to its cage. The following day, the animal is re-anesthetized, weighed, and its wound is re-opened. The gelfoam is removed and the animal is attached to the fluid percussion device via the modified Leur-loc. At this time, the animal is given a ˜20 ms saline injection at approximately 2.4 atmospheres (350 mV on the oscilloscope) using the fluid percussion injury device (Custom Design & Fabrication, Richmond, Va.) (FIG. 29).
On occasion, the animal ceases spontaneous breathing following the injury and 1-2 chest compressions are required for resuscitation. The modified Leur-loc along with the dental acrylic is removed en bloc immediately following the injury. The animal is placed on 100% oxygen while its wound is cleaned and resealed with Vetbond tissue adhesive (3M Worldwide, Maplewood, Minn.). The rat's body temperature during the recovery time is maintained at 37° C. with a homeothermic warming blanket (Harvard Bioscience Inc, Holliston, Mass.). The amount of time necessary for the righting reflex to return is recorded and the animal is placed back into its cage. At 3 h post-injury, the animal is re-anesthetized and weighed again. The wound overlying the femoral cannula is opened and the cannula is cleaned out using heparinized saline. […] The cannula is sealed, tucked again into the animal, and the wound is re-sutured. At 24 h post-injury, the animal is re-anesthetized and weighed again. The rat is transcardially perfused using heparinized saline to clean out the cardiovascular system, followed by a 4% formalin fixative solution. The rat is decapitated and left in the fixative solution overnight. The brain is extracted the following day and processed. The volume of damaged brain (FIG. 26, right graph) is assessed according to the same methods as described in Aarts et al., 2002, for assessing stroke volumes. […]

## Tat-KLSSIESDV [Tat-NR2B9c]
[1]; 50 nM
  toxic effects in control or stretched cultures: no toxic effects
[1]; 50 nM 30 min prior to stretch, NMDA 30 μM 1 h, cell death at 20 h
  heightened vulnerability of stretched cultures to NMDA toxicity, pre-treatment: completely abolished
[1]; 50 nM applied after terminating the 1 h NMDA challenge
  enhanced cell mortality in stretched neurons by NMDA challenge, post-treatment: reduced the enhanced cell mortality
[2]; 3 hours after TBI
  total volume of injured brain: significantly reduced
[2]; via femoral cannula 3 hours after TBI
  fraction of dead cells in cerebral cortex and hippocampus ipsilateral to the injury: markedly reduced fraction of dead cells
